Source: patent US6967196B1, “Sulfonamide compounds and uses thereof” (Bristol-Myers Squibb Company, priority 1999, dated 2005)
Where a name gives a salt, the structure may show the parent alone. Read-outs that look alike come from different tables or passages of the source. One block for each compound: values may come before it.

Test system: amyloid β production in transfected H4 (human neuroglioma) cells stably expressing APP constructs
Assay: In vitro cell-based assay of inhibitors of amyloid β production (ELISA)
Details: amyloid β in medium by ELISA
How it was run: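 Aβ secreted into the medium was determined by a two-antibody ELISA specific for the Aβ C-terminus, calibrated with known Aβ amounts. Before that, compounds (10-100 μM initially) were left on the cells for roughly 16 hours.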

[1] = transfected H4 cells stably expressing APP, approx. 16 h incubation, read-out: ACTIVITY (IC50, inhibition of amyloid β production)
[2] = Homo sapiens, 16 h, transfected H4 cells stably expressing APP, approximately 16 hours incubation, read-out: ACTIVITY (IC50, inhibition of amyloid β production)
[3] = Homo sapiens, 16 h, transfected H4 cells expressing APP, approximately 16 hours incubation, read-out: ACTIVITY (IC50, inhibition of amyloid β production)
[4] = transfected H4 cells stably expressing APP, approximately 16 hours incubation, read-out: ACTIVITY (IC50, inhibition of amyloid β production)
[5] = Homo sapiens, 16 h, transfected H4 cells stably expressing APP, approximately 16 hours incubation, Table B, read-out: ACTIVITY (IC50, inhibition of amyloid β production)
[6] = Homo sapiens, 16 h, transfected H4 cells stably expressing APP, approx. 16 h incubation, read-out: ACTIVITY (IC50, inhibition of amyloid β production)
[7] = transfected H4 cells stably expressing APP constructs, approximately 16 hours incubation, read-out: ACTIVITY (IC50, inhibition of amyloid β production)

IC50 [1]: 100 to 500 nM
Compound: N-{3-[2-({[(4-chlorophenyl)sulfonyl]-2,5-difluoroanilino}methyl)phenoxy]propyl}-N,3-dimethylbenzamide [Example 696]

IC50 [1]: 100 to 500 nM
Compound: 3-[2-((1R)-1-{[(4-chlorophenyl)sulfonyl]-2,5-difluoroanilino}ethyl)phenyl]-N-isopropylpropanamide [Example 655]

IC50 [2]: > 500 nM
Compound: O=C1c2ccccc2C(=O)N1CCCOc1ccccc1CN(c1cc(F)ccc1F)S(=O)(=O)c1ccc(Cl)cc1 [Example 916, 4-chloro-N-(2,5-difluorophenyl)-N-{2-[3-(1,3-dioxo-1,3-dihydro-2H-isoindol-2-yl)propoxy]benzyl}benzenesulfonamide]

IC50 (Table B, transfected H4 cells stably expressing APP, approximately 16 hours incubation, read-out: ACTIVITY (inhibitory concentration IC50, inhibition of amyloid β production)): ≤ 25 nM
Compound: C[C@H](CCOC(c1ccccc1)(c1ccccc1)c1ccccc1)N(c1cc(Cl)ccc1Cl)S(=O)(=O)c1ccc(Cl)cc1 [Example 26, 4-Chloro-N-(2,5-dichlorophenyl]-N-[1(R)-methyl-(3-triphenylmethyloxy)-propyl]benezenesulfonamide]

IC50 [3]: > 500 nM
Compound: C[C@H](C(=O)NCCC(c1ccccc1)c1ccccc1)N(c1cc(Cl)ccc1F)S(=O)(=O)c1ccc(Cl)cc1 [Example 1302]

IC50 [3]: > 500 nM
Compound: C[C@H](C(=O)NCCc1ccc(O)cc1)N(c1cc(Cl)ccc1F)S(=O)(=O)c1ccc(Cl)cc1 [Example 1331]

IC50 [4]: > 500 nM
Compound: ethyl (2E)-3-[2-({[(4-chlorophenyl)sulfonyl]anilino}methyl)phenyl]-2-propenoate [Example 971]

IC50 [5]: 50 to 100 nM
Compound: O=C1CCC(=O)N1CCCOc1ccccc1CN(c1cc(F)ccc1F)S(=O)(=O)c1ccc(Cl)cc1 [Example 399, 4-chloro-N-(2,5-difluorophenyl)-N-{2-[3-(2,5-dioxo-1-pyrrolidinyl)propoxy]benzyl}benzenesulfonamide]

IC50 [1]: 100 to 500 nM
Compound: 2-chloro-N-{3-[2-(1-{[(4-chlorophenyl)sulfonyl]-2,5-difluoroanilino}methyl)phenoxy]propyl}-N-methylbenzamide [Example 774]

IC50 [4]: > 500 nM
Compound: N-{4-[2-(1-{[(4-chlorophenyl)sulfonyl]-2,5-difluoroanilino}ethyl)phenoxy]butyl}-3-cyclopentyl-N-ethylpropanamide [Example 943]

IC50 [3]: ≤ 25 nM
Compound: CCN(CC)C(=O)OC[C@@H](C)N(c1cc(Cl)ccc1CO)S(=O)(=O)c1ccc(Cl)cc1 [Example 1283]

IC50 [4]: 100 to 500 nM
Compound: 2-((1R)-1-{[(4-chlorophenyl)sulfonyl]-2,5-difluoroanilino}ethyl)benzyl benzyl[2-(dimethylamino)ethyl]carbamate [Example 838]

IC50 [6]: 100 to 500 nM
Compound: O=S(=O)(c1ccc(Cl)cc1)N(Cc1ccccc1Cn1ccnc1)c1cc(F)ccc1F [Example 772, 4-chloro-N-(2,5-difluorophenyl)-N-[2-(1H-imidazol-1-ylmethyl)benzyl]benzenesulfonamide]

IC50 (transfected H4 cells stably expressing APP, approximately 16 hours incubation, Table B, read-out: ACTIVITY (IC50, inhibition of amyloid β production)): 50 to 100 nM
Compound: CC(=O)SCCCOc1ccccc1CN(c1ccccc1)S(=O)(=O)c1ccc(Cl)cc1 [Example 341, S{3-[2-({[(4-chlorophenyl)sulfonyl]anilino}methyl)phenoxy]propyl}ethanethioate]

Compound: CC(C)Oc1c(NCCC[C@@H](C)N(c2cc(Cl)ccc2F)S(=O)(=O)c2ccc(Cl)cc2)c(=O)c1=O [Example 1122, 4-chloro-N-(5-chloro-2-fluorophenyl)-N-[4-(2-isopropoxy-3,4-dioxo-1-cyclobutenyl)amine-1(R)-methylbutyl]benzenesulfonamide]
IC50 [7]: 50 to 100 nM

IC50 [1]: 100 to 500 nM
Compound: 2,4-dichloro-N-{3-[2-(1-{[(4-chlorophenyl)sulfonyl]-2,5-difluoroanilino}ethyl)phenoxy]propyl}-5-fluoro-N-methylbenzamide [Example 750]

Compound: CCSCC[C@@H](C)N(c1cc(Cl)ccc1Cl)S(=O)(=O)c1ccc(Cl)cc1 [Example 1189, 4-chloro-N-[2,5-dichlorophenyl]-N-[1(R)-methyl-(3-ethylthio)propyl]benzenesulfonamide]
IC50 [7]: 100 to 500 nM

IC50 [1]: 100 to 500 nM
Compound: N-{3-[2-(1-{[(4-chlorophenyl)sulfonyl]-2,5-difluoroanilino}ethyl)phenoxy]propyl}-3-methoxybenzamide [Example 690]

IC50 [3]: ≤ 25 nM
Compound: C[C@H](COC(=O)NC(C)(C)C)N(c1cc(Cl)ccc1CO)S(=O)(=O)c1ccc(Cl)cc1 [Example 1282]

IC50 [2]: > 500 nM
Compound: COc1ccccc1C(=O)N1CCCCC1CCOc1ccccc1CN(c1cc(F)ccc1F)S(=O)(=O)c1ccc(Cl)cc1 (stereo not shown) [Example 902, 4-chloro-N-(2,5-difluorophenyl)-N-(2-{2-[1-(2-methoxybenzoyl)-2-piperidinyl]ethoxy}benzyl)benzenesulfonamide]

IC50 [3]: > 500 nM
Compound: CC(CCCC(C)(C)O)NC(=O)[C@@H](C)N(c1cc(Cl)ccc1F)S(=O)(=O)c1ccc(Cl)cc1 (stereo partly shown) [Example 1335]

IC50 [1]: 100 to 500 nM
Compound: CCCCC(=O)N(CC)CC(C)Oc1ccccc1C(C)N(c1cc(F)ccc1F)S(=O)(=O)c1ccc(Cl)cc1 (stereo not shown) [Example 777, N-{2-[2-(1-{[(4-chlorophenyl)sulfonyl]-2,5-difluoroanilino}ethyl)phenoxy]propyl}-N-ethylpentamide]

IC50 [6]: 100 to 500 nM
Compound: CCN(CC)C(=O)N(CC)CCOc1ccccc1C(C)N(c1cc(F)ccc1F)S(=O)(=O)c1ccc(Cl)cc1 (stereo not shown) [Example 698, 4-chloro-N-[1-(2-{2-[[(diethylamino)carbonyl](ethyl)amino]ethoxy}phenyl)ethyl]-N-(2,5-difluorophenyl)benzenesulfonamide]

IC50 [4]: > 500 nM
Compound: methyl [{2-[2-(1-{[(4-chlorophenyl)sulfonyl]-2,5-difluoroanilino}ethyl)phenoxy]ethyl}(methyl)amino](oxo)acetate [Example 929]

IC50 [4]: > 500 nM
Compound: 2-({[(4-chlorophenyl)sulfonyl]anilino}methyl)phenyl trifluoromethanesulfonate [Example 1004]

IC50 [4]: > 500 nM
Compound: N-{3-[2-({[(4-chlorophenyl)sulfonyl]-2,5-difluoroanilino}methyl)phenoxy]propyl}-3,4,5-trimethoxy-N-methylbenzamide [Example 989]

IC50 [4]: > 500 nM
Compound: O=S(=O)(c1ccc(Cl)cc1)N(CCc1cccc(OCCCN2CCCCC2)c1)c1ccccc1 [Example 956, 4-chloro-N-phenyl-N-(2-{3-[3-(1-piperidinyl)propoxy]phenyl}ethyl)benzeneslfonamide hydrochloride]

IC50 [2]: > 500 nM
Compound: O=S(=O)(c1ccc(Cl)cc1)N(CCc1ccccc1O)c1ccccc1 [Example 1015, 4-chloro-N-[2-(2-hydroxyphenyl)ethyl]-N-phenylbenzenesulfonamide]

IC50 [1]: 100 to 500 nM
Compound: 2-((1R)-1-{[(4-chlorophenyl)sulfonyl]-2,5-difluoroanilino}ethyl)benzyl 1,2,3,4-tetrahydro-1-naphthalenylcarbamate [Example 660]

IC50 [4]: > 500 nM
Compound: [({4-[2-((1R)-1-{[(4-chlorophenyl)sulfonyl]-2,5-difluoroanilino}ethyl)-5-fluorophenyl]butanoyl}amino)oxy]acetic acid [Example 1077]

IC50 [1]: 100 to 500 nM
Compound: (2E)-N-{2-[2-(1-{[(4-chlorophenyl)sulfonyl]-2,5-difluoroanilino}ethyl)phenoxy]ethyl}-N-ethyl-2-butenamide [Example 649]

IC50 [1]: 100 to 500 nM
Compound: N-{4-[2-(1-{[(4-chlorophenyl)sulfonyl]-2,5-difluoroanilino}ethyl)phenoxy]butyl}-N-ethyl-2-thiophenecarboxamide [Example 756]

Compound: C[C@H](CCCN1CCCC(S(C)(=O)=O)C1)N(c1cc(Cl)ccc1Cl)S(=O)(=O)c1ccc(Cl)cc1 (stereo partly drawn) [Example 1108, 4-chloro-N-(2,5-dichlorophenyl)-N-[4-[(3-methylsulfonyl)-1-piperidinyl]-1(R)-methylbutyl]benzenesulfonamide]
IC50 [7]: ≤ 25 nM

Compound: CCCCOc1ccc(C(=O)N2CCCCC2CCOc2ccccc2CN(c2cc(F)ccc2F)S(=O)(=O)c2ccc(Cl)cc2)cc1 (stereo not shown) [Example 899, N-(2-{2-[1-(4-butoxybenzoyl)-2-piperidinyl]ethoxy}benzyl)-4-chloro-N-(2,5-difluorophenyl)benzenesulfonamide]
IC50 [2]: > 500 nM

IC50 [3]: ≤ 25 nM
Compound: C[C@H](COC(=O)NCCCn1cnnn1)N(c1cc(Cl)ccc1F)S(=O)(=O)c1ccc(Cl)cc1 [Example 1294]

IC50 [5]: 50 to 100 nM
Compound: CC(NC(=O)OCCc1cc(F)ccc1[C@@H](C)N(c1cc(F)ccc1F)S(=O)(=O)c1ccc(Cl)cc1)c1ccccc1 (stereo partly drawn) [Example 385, 2-[2-((1R)-1-{[(4-chlorophenyl)sulfonyl]-2,5-difluoroanilino}ethyl)-5-fluorophenyl]ethyl 1 phenylethylcarbamate]

IC50 (Homo sapiens, 16 h, transfected H4 cells stably expressing APP constructs, approximately 16 hours incubation, read-out: ACTIVITY (IC50, inhibition of amyloid β production)): 100 to 500 nM
Compound: C[C@H](CCCS(=O)(=O)O)N(c1cc(Cl)ccc1F)S(=O)(=O)c1ccc(Cl)cc1 [Example 1192, (4R)-4-[N-[5-chloro-2-fluorophenyl][(4-chlorophenyl)sulfonyl]amino]pentylsulfonic acid]
